Laboratory results taken from paper PMC9025851, “Polyphenolic Compounds from Lespedeza bicolor Protect Neuronal Cells from Oxidative Stress” (Antioxidants, 2022).
Like-named read-outs stand apart in the source and are kept apart here. Values belong to the compound of their own block, whether it stands above or below them.

Columns and labels:
[1] = design: method as in PMID 31004693; conditions: 30 min; mean ± SEM, n = 3; previously published; read-out: DPPH-Scavenging Effect SC50; cited from earlier work
[2] = system: PQ-treated Neuro-2a cells; experiment: PQ-induced neurotoxicity, cell viability (MTT); type: cell-based, murine; conditions: PQ 1 mM; for Effect on percentage of living cells after treatment with PQ: compounds 0.01–10 μM, 1 h pre-treatment, MTT after 24 h
Method: (§1) After 24 h of adhesion, Neuro-2a cells (1 × 10^4 cells/well) were treated with polyphenolic compounds at concentrations of 0.01–10 μM for 1 h. Subsequently, 1 mM of PQ, 10 μM rotenone or 80 μM of 6-OHDA (Sigma-Aldrich, St. Louis, MO, USA) were added. We used MTT assay to determine the percentage of living cells (cell viability) after 24 h of incubation. Cells incubated without inductors or with inductors were used as positive and negative control, respectively. The results are presented as percentages of the positive control value.

Cytotoxicity, MTT assay = type: cell-based, murine; conditions: mouse, Neuro-2a neuroblastoma cells, read-out: Cytotoxic activity EC50
Method: The murine neuroblastoma cell line Neuro-2a (CCL-131) was purchased from American Type Culture Collection (ATCC®) (Manassas, VA, USA). Cells were cultured in Dulbecco’s Modified Eagle Medium (Biolot, St. Petersburg, Russia). The medium contained 10% fetal bovine serum (Biolot, St. Petersburg, Russia) and 1% penicillin/streptomycin (Biolot, St. Petersburg, Russia). Cells were incubated at 37 °C in a humidified atmosphere containing 5% (v/v) CO2.
Stock solutions of polyphenolic compounds were prepared in DMSO at a concentration of 10 mM. […]
We incubated Neuro-2a cells (1 × 10^4 cells/well) at 37 °C in a CO2 incubator for 24 h until they formed an adherent monolayer. Then, 20 μL of the tested solution was loaded onto the cells and incubated for 24 h. After incubation, the medium containing the polyphenolic test compounds was replaced by 100 μL of fresh medium. Then, we added 10 μL of MTT (3-(4,5-dimethylthiazol-2-yl)-2,5-diphenyltetrazolium bromide) (Sigma-Aldrich, St. Louis, MO, USA) stock solution (5 mg/mL) to each well and incubated the microplate for 4 h. Then, 100 μL of SDS-HCl solution (1 g SDS/10 mL dH2O/17 μL 6 M HCl) was added to each well, followed by incubation for 18 h. We measured the absorbance of the converted dye formazan on a Multiskan FC microplate photometer (Thermo Scientific, Waltham, MA, USA) at a wavelength of 570 nm. We performed all experiments in triplicate and expressed the cytotoxic activity as percent of living cells.

[3] = system: PQ-treated Neuro-2a cells; experiment: ROS level in PQ-treated cells (H2DCF-DA); type: cell-based, murine; conditions: PQ 1 mM, 3 h
Method: (§2) After 24 h of adhesion, Neuro-2a cells (1 × 10^4 cells/well) were incubated with compounds (0.01–10 µM) for 1 h. Then, we added rotenone (10 μM), 6-OHDA (80 μM), or PQ (1 mM) to each well and incubated cells for 1 h, 1 h, or 3 h, respectively. To evaluate the level of intracellular ROS, we added 20 µL of 2,7-dichlorodihydrofluorescein diacetate solution ([…], H2DCF-DA, Molecular Probes, Eugene, OR, USA) to each well, so that the final concentration was 10 µM, and incubated the microplate at 37 °C for an additional 30 min. Quercetin was used as a reference compound.

[4] = design: method as in PMID 31004693; conditions: mean ± SEM, n = 3; previously published; cited from earlier work
[5] = system: human triple-negative breast cancer HTB-19; design: method as in PMID 32087226; conditions: cited from earlier work
[6] = system: human embryonic kidney cells HEK-293; design: method as in PMID 32087226; conditions: HEK-293 normal cell line; cited from earlier work
[7] = system: esophageal squamous cell carcinoma Kyse-30; design: method as in PMID 32087226; conditions: cited from earlier work
[8] = system: retina pigmented epithelium cells RPE-1; design: method as in PMID 32087226; conditions: RPE-1 normal cell line; cited from earlier work
[9] = system: 6-OHDA-treated Neuro-2a cells; experiment: ROS level in 6-OHDA-treated cells (H2DCF-DA); type: cell-based, murine; conditions: 6-OHDA 80 µM, 1 h; H2DCF-DA
Method: as §2

[10] = system: hepatocellular carcinoma HEPG-2; design: method as in PMID 32087226; conditions: cited from earlier work
[11] = system: 6-OHDA-treated Neuro-2a cells; experiment: 6-OHDA-induced neurotoxicity, cell viability (MTT); type: cell-based, murine; conditions: 6-OHDA 80 µM, p < 0.05
Method: as §1

[12] = system: rotenone-treated Neuro-2a cells; experiment: Rotenone-induced neurotoxicity, cell viability (MTT); type: cell-based, murine; conditions: for Increase in percentage of living cells after treatment with rotenone compared to rotenone-treated cells: rotenone 10 µM, MTT, p < 0.05
Method: as §1

α-synuclein = system: α-synuclein; design: method as in PMID 32585871; conditions: cited from earlier work
6-OHDA-exposed worms = system: 6-OHDA-exposed worms; design: method as in PMID 32585871; conditions: cited from earlier work
RAW 264.7 macrophages = system: RAW 264.7 macrophages; design: method as in PMID 25592708; conditions: cited from earlier work
MAO-B = system: MAO-B; design: method as in PMID 27575476, PMID 32087226; conditions: cited from earlier work
5-lipoxygenase = system: 5-lipoxygenase; design: method as in PMID 28506902; conditions: cited from earlier work
MAO-A = system: MAO-A; design: method as in PMID 27575476, PMID 32087226; conditions: cited from earlier work
[13] = system: rotenone-treated Neuro-2a cells; experiment: ROS level in rotenone-treated cells (H2DCF-DA); type: cell-based, murine; conditions: rotenone 10 µM, 1 h
Method: as §2

[14] = Ferric reducing antioxidant power (FRAP) assay; conditions: 4 min, absorbance 595 nm; mean ± SEM, n = 3
Method: We performed the FRAP assay as described in [29]. We prepared the FRAP reagent by mixing 2.5 mL of TPTZ (2,4,6-tris(2-pyridyl)-s-triazine) solution (10 mM) in 40 mM HCl and 25 mL of FeCl3 solution (20 mM) in acetate buffer solution (300 mM, pH 3.6). Polyphenolics 7–11 were added to 3 mL of FRAP reagent at concentrations from 6 to 34 µM. The mixture was kept in the dark at room temperature for 4 min. Then, we measured the absorbance at 595 nm using a Shimadzu UV 1240 spectrophotometer. Equation (2) was used to calculate the FRAP values for polyphenolic compounds 7–11:(2) FRAP=CFe/Cx where CFe is the concentration of Fe^2+ (µM) formed in the reaction; CX is the concentration of polyphenolic compounds in the reacting mixture.
The concentration of Fe^2+ (µM) formed in the reaction was determined using the calibration curve obtained for different concentrations of FeSO4·7H2O.

[15] = DPPH radical-scavenging effect; conditions: 30 min; DPPH• 10^−4 M in MeOH; mean ± SEM, n = 3; read-out: DPPH-Scavenging Effect SC50
Method: The 2,2-diphenyl-1-picrylhydrazyl (DPPH^•) radical-scavenging effect of polyphenolic compounds 7–11 was determined as described in [24]. Polyphenolic compounds 7, 8, 9, 10, and 11 were added to DPPH^• solution in MeOH (10^−4 M) at concentrations from 6 to 34 µM. The reacting mixture was kept in the dark for 30 min at room temperature. Then, we measured the absorbance at 517 nm using a Shimadzu UV 1240 spectrophotometer (Shimadzu, Kyoto, Japan). Equation (1) was used to calculate the DPPH^• radical-scavenging effect (%):(1) DPPH^• scavenging effect,%=A0−Ax/A0 where A0 is the absorbance of DPPH^• solution of a blank sample (without polyphenolic compounds); AX is the absorbance of DPPH^• solution in the presence of different concentrations of polyphenolic compounds.
Quercetin was used as a reference compound. All experiments were performed in triplicate. We calculated the half-maximal scavenging concentration (SC50) for polyphenolic compounds by plotting the DPPH^• scavenging effect (%) against the concentrations of polyphenolic compounds. SC50 values are given as the mean value ± SEM.

[16] = system: cerebral global-ischemia model; conditions: cited from earlier work
[17] = system: LPS- and Aβ-induced neurotoxicity; design: method as in PMID 21708076; conditions: cited from earlier work
TNF-α, IL-1, and IL-6 = system: TNF-α, IL-1, and IL-6; design: method as in PMID 21708076; conditions: cited from earlier work
rats = system: rats; design: method as in PMID 31693927, doi:10.1016/j.jff.2017.05.002; conditions: cited from earlier work

SMILES: CC(C)=CCC/C(C)=C/Cc1c(O)c(O)cc2c1O[C@H]1c3cc(CC=C(C)C)c(O)cc3OC[C@@H]21 [Compound 6, (6aR,11aR)-2-isoprenyl-6a,11a-dihydrolespedezol A2]
EC50 [1]: 21.8 ± 2 µM
Effect on percentage of living cells after treatment with PQ [2]: significantly increased
Concentration range in which the neuroprotective effect was detected ([2]; MTT): 0.01 to 1 µM
Increase in percentage of living cells after treatment with PQ ([2]; compound 1 μM, MTT): 17%
EC50 at 24 h (Cytotoxicity, MTT assay): 40.6 µM
Effect on ROS level in PQ-treated cells [3]: slightly decreased
FRAP [4]: 1.43 ± 0.06 mol (Fe^2+)/mol (polyphenolic compound X)

SMILES: CC(C)=CCC/C(C)=C/Cc1c(O)c(O)cc2c3c(oc12)-c1ccc(O)cc1OC3 [Compound 4, lespedezol A2]
EC50 [1]: 18 ± 0.2 µM
Effect on percentage of living cells after treatment with PQ [2]: did not exhibit any effect
Cytotoxicity [5]: rather cytotoxic
Cytotoxicity [6]: rather cytotoxic
Cytotoxicity [7]: rather cytotoxic
EC50 at 24 h (Cytotoxicity, MTT assay): 76 µM
Cytotoxicity [8]: rather cytotoxic
Effect on ROS levels in 6-OHDA-treated cells [9]: significantly decreased
Cytotoxicity [10]: rather cytotoxic
FRAP [4]: 2.78 ± 0.18 mol (Fe^2+)/mol (polyphenolic compound X)
Increase in percentage of living cells after 6-OHDA treatment versus 6-OHDA-treated cells [11]: 7.0%

SMILES: C=C(C)[C@H]1Cc2c(ccc3c2O[C@@H]2COc4cc(OC)c(OC)cc4[C@@H]2C3=O)O1 [rotenone, reference compound]
Percentage of living Neuro-2a cells compared to the control ([12]; rotenone 10 µM alone): 68%

SMILES: Oc1ccc2c(c1)OC[C@H]1c3cc4c(cc3O[C@@H]21)OCO4 [maackiain]
Accumulation of α-synuclein (α-synuclein): diminish
Dopaminergic neuron damage (6-OHDA-exposed worms): significantly reduce
LPS-induced nitric oxide production (RAW 264.7 macrophages): inhibitory effects
Inhibition of MAO-B (MAO-B): selectively inhibited
Inhibition of 5-lipoxygenase (5-lipoxygenase): inhibited
Inhibition of MAO-A (MAO-A): did not effectively inhibit

EC50 [15]: 22.7 ± 3.5 µM
SMILES: CC(C)=CCC[C@@]1(C)C=Cc2c(c(O)cc3c2oc2c4ccc(O)cc4oc(=O)c32)O1 [Compound 10, lespebicoumestan A]
EC50 at 24 h (Cytotoxicity, MTT assay): 44 µM
Effect on ROS levels in rotenone-treated cells [13]: did not significantly decrease
FRAP [14]: 1.75 ± 0.20 mol (Fe^2+)/mol (polyphenolic compound X)
Effect on ROS levels in 6-OHDA-treated cells [9]: significantly decreased
Increase in percentage of living cells after treatment with rotenone compared to rotenone-treated cells [12]: 13.2%
Increase in percentage of living cells after 6-OHDA treatment versus 6-OHDA-treated cells [11]: 10.9%

EC50 [15]: 13.5 ± 1.2 µM
SMILES: CC(C)=CCC[C@@]1(C)C=Cc2c(c(O)cc3c4c(oc23)-c2ccc(O)cc2OC4)O1 [Compound 9, lespedezol A3]
EC50 at 24 h (Cytotoxicity, MTT assay): 75 µM
Effect on ROS levels in rotenone-treated cells [13]: did not significantly decrease
Effect on ROS levels in 6-OHDA-treated cells [9]: significantly decreased
Increase in percentage of living cells after treatment with rotenone compared to rotenone-treated cells [12]: 10.4%
Increase in percentage of living cells after 6-OHDA treatment versus 6-OHDA-treated cells [11]: 31.4%

SMILES: O=c1oc2cc(O)ccc2c2oc3cc(O)ccc3c12 [Coumestrol]
Neuroprotection in a cerebral global-ischemia model [16]: effective neuroprotection
Neurotoxicity induced by LPS and amyloid-beta peptide (Aβ) [17]: attenuated
Production of inflammatory cytokines TNF-α, IL-1, and IL-6 (TNF-α, IL-1, and IL-6): inhibited
Mitochondrial activity (rats): modulated
Oxidative stress (rats): decreased
